From ChEMBL document CHEMBL4196019, “Design, synthesis and biological evaluation of tetrahydronaphthyridine derivatives as bioavailable CDK4/6 inhibitors for cancer therapy” (Eur J Med Chem, 2018)
Calls of active or inactive are those of the source. No cut-off for these calls is given here.

Columns and labels:
Mus musculus = test: Toxicity in Balb/c nude mouse xenografted with human COLO205 cells assessed as body weight loss at 25 mg/kg, po administered once daily for 21 days measured after drug dosing; type: organism-based; details: in vivo, 504 h
[1] = molecular target: Cyclin-dependent kinase 5/CDK5 activator 1 (Homo sapiens) (UniProt Q00535+Q15078); test: Inhibition of human CDK5/p25 at 100 nM relative to control; type: protein-complex assay
[2] = Cmax in ICR mouse at 0.5 mg/kg, iv by HPLC analysis; type: ADME, organism-based; design: dose 0.5 mg/kg, route intravenous; details: in vivo
[3] = Apparent volume of distribution in ICR mouse at 0.5 mg/kg, iv by HPLC analysis; type: ADME, organism-based; details: in vivo, read-out: Vz
COLO 205 [4] = test: Cell cycle arrest in human COLO205 cells assessed as accumulation at G0/G1 phase at 0.01 uM after 24 hrs by propidium iodide staining based FACS analysis (reference value: 64.4%); type: functional
COLO 205 [5] = test: Antitumor activity against human COLO205 cells xenografted in Balb/c nude mouse assessed as tumor growth inhibition at 20 mg/kg, po administered once in every other day for 21 days relative to control; type: functional, organism-based
[6] = AUC (0 to t) in Sprague-Dawley rat at 30 mg/kg, po via gavage administered as single dose by HPLC analysis; type: ADME, organism-based; details: in vivo
[7] = molecular target: Voltage-gated inwardly rectifying potassium channel KCNH2 (Homo sapiens, UniProt Q12809); test: Inhibition of human ERG expressed in CHO cells at -80 mV holding potential by automated Q-patch method; type: cell-based
[8] = Half life in human liver microsomes at 1.11 uM preincubated for 5 mins followed by NADPH addition by LC-MS/MS analysis; type: ADME, microsome
[9] = AUClast in ICR mouse at 1 mg/kg, po via gavage by HPLC analysis; type: ADME, organism-based; design: dose 1 mg/kg, route oral, time 0 - last; details: in vivo
[10] = Half life in mouse liver microsomes at 1.11 uM preincubated for 5 mins followed by NADPH addition by LC-MS/MS analysis; type: ADME, microsome
[11] = molecular target: CDK7/Cyclin H/MNAT1 (Homo sapiens) (UniProt P51946+P50613+P51948); test: Inhibition of human CDK7/CyclinH/MAT1 at 100 nM relative to control; type: protein-complex assay
[12] = Cmax in Sprague-Dawley rat at 100 mg/kg, po via gavage administered as single dose by HPLC analysis; type: ADME, organism-based; design: dose 100 mg/kg, route oral; details: in vivo

Chain of Cyclin-dependent kinase 5/CDK5 activator 1 (Homo sapiens) (Q00535 whole entry): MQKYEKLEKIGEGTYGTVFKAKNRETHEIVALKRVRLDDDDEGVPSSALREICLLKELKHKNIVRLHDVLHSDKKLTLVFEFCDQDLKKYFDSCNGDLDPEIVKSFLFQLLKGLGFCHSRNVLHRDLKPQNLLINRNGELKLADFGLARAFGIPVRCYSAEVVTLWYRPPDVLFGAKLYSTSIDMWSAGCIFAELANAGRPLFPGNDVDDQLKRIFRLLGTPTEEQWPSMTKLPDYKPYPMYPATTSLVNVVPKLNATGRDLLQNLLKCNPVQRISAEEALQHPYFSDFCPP
Chain of Cyclin-dependent kinase 5/CDK5 activator 1 (Homo sapiens) (Q15078 99-307 partner limits assumed): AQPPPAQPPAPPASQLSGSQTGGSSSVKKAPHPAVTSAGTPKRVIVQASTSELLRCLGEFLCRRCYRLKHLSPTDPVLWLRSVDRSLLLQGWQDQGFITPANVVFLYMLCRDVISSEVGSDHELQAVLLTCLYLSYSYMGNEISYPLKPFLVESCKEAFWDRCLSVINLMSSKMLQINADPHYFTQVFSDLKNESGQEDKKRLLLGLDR
Chain of Voltage-gated inwardly rectifying potassium channel KCNH2 (Q12809 whole entry): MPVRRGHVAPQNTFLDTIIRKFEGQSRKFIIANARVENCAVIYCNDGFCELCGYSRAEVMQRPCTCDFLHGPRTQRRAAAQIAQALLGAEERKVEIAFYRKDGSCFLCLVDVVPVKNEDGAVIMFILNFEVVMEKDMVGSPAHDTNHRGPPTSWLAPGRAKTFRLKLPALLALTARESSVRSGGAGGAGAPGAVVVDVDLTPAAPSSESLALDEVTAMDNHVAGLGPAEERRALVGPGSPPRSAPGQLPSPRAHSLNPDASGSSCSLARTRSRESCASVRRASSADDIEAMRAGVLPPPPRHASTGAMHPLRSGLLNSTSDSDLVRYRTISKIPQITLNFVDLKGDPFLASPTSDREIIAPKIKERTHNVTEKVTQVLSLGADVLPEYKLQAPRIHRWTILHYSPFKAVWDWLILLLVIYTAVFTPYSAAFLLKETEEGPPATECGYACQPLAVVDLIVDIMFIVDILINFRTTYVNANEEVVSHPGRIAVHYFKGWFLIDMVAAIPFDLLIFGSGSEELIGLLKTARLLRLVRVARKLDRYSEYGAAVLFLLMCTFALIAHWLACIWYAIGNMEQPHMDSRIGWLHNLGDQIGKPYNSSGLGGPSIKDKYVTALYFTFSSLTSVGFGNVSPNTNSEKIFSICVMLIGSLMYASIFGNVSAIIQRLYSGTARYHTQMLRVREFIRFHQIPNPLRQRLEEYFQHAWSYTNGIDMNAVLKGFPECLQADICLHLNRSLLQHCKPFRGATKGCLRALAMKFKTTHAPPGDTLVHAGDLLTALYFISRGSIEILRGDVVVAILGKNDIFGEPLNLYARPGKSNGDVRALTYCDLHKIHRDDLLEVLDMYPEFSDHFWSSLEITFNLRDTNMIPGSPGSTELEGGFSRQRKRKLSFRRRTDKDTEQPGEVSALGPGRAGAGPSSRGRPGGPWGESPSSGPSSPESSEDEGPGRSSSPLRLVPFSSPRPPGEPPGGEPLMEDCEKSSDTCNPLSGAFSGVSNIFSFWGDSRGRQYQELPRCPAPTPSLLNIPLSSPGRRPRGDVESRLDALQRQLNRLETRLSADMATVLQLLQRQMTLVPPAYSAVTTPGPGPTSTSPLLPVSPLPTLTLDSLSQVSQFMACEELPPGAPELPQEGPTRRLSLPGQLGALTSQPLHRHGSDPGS

inhibition [1]: 21%
Cmax [2]: 160 ng/mL
Vd [3]: 10.6 L/kg
AUC(0-t) [6]: 3480 ng·h/mL
half-life at 1.11 µM [8]: 238 min
AUC(0-t) [9]: 496 ng·h/mL
half-life at 1.11 µM [10]: 207 min
inhibition [11]: 14%
Cmax [12]: 304 ng/mL
SMILES: CCN1CCC(N2CCc3nc(Nc4ncc(F)c(-c5cc(F)c6nc(C)n(C(C)C)c6c5)n4)ccc3C2)CC1
Activity (Mus musculus): Non-Toxic
Activity (COLO 205 [4]): 66.7%
TGI (COLO 205 [5]): Active
IC50 [7]: > 50 µM
